Test results as given in PMC8026479 (Cancer Chemotherapy and Pharmacology, 2021).

Experiments:
[1] = tested on: chemotherapy-induced myelosuppression in ES-SCLC patients; assay: Study G1T28-03 Part 1 DLTs and myelosuppression endpoints (with topotecan); format: in vivo, human
Description: G1T28-03 (NCT02514447) was a multicentre Phase Ib/IIa study in patients with previously treated ES-SCLC [14]. Patients were aged ≥ 18 years and had histologically or cytologically confirmed ES-SCLC that had progressed during or after prior first- or second-line chemotherapy, measurable disease per RECIST version 1.1, an ECOG performance status of 0–2, and adequate organ function. Part 1 was a Phase Ib, open-label, dose-finding portion. Part 2 was a Phase IIa, randomized, double-blind, placebo-controlled portion. […] In Part 1 of the study, blood samples for PK analysis were collected at prespecified time points on Cycle 1 Day 1 and Cycle 1 Day 4 for all patients.

[2] = tested on: murine HSCs / total bone marrow cycling cells; design: method as in PMID 28446688; settings: mouse, at concentrations giving maximum decrease in total bone marrow cycling cells; cited from earlier work
[3] = G1T28-03 Part 1, 200 mg/m2 + topotecan 0.75 mg/m2 (n = 4)
[4] = G1T28-03 Part 1, 200 mg/m2 + topotecan 1.25 mg/m2 (n = 3)
[5] = G1T28-03 Part 1, 200 mg/m2 + topotecan […]2 (n = 2)
[6] = G1T28-03 Part 1, 240 mg/m2 + topotecan 0.75 mg/m2 (n = 8)
[7] = G1T28-03 Part 1, 240 mg/m2 + topotecan 1.00 mg/m2 (n = 8)
[8] = G1T28-03 Part 1, 280 mg/m2 + topotecan 0.75 mg/m2 (n = 7)
[9] = G1T28-03 Part 1, total (n = 32)

patients reporting DLTs ([1]; G1T28-03 Part 1, 200 mg/m2 + topotecan 0.75 mg/m2): 2 of 4
patients reporting DLTs ([1]; G1T28-03 Part 1, 280 mg/m2 + topotecan 0.75 mg/m2): 2 of 7
SMILES: CN1CCN(c2ccc(Nc3ncc4cc5n(c4n3)C3(CCCCC3)CNC5=O)nc2)CC1 [trilaciclib]
DSN in Cycle 1, mean (SD) [1, 3]: 0 (0.0) days
MAHE, event rate [1, 3]: 0.102 per week
Mean ANC Nadir in Cycle 1 [1, 3]: 0.98 (0.330) ×109/L
Occurrence of ESA administrations [1, 3]: 0 n (%)
Occurrence of FN [1, 3]: 0 n (%)
Occurrence of G-CSF administration [1, 3]: 1 (25.0) n (%)
Occurrence of Grade 3 or 4 decreased hemoglobin laboratory values [1, 3]: 2 (50.0) n (%)
Occurrence of Grade 3 or 4 decreased platelet count values [1, 3]: 2 (50.0) n (%)
Occurrence of Grade 3 or 4 hematologic laboratory abnormalities [1, 3]: 4 (100.0) n (%)
Occurrence of IV antibiotic use [1, 3]: 1 (25.0) n (%)
Occurrence of RBC transfusions on/after Week 5 [1, 3]: 2 (50.0) n (%)
Occurrence of SN [1, 3]: 1 (25.0) n (%)
Occurrence of infection SAEs [1, 3]: 1 (25.0) n (%)
Occurrence of platelet transfusions [1, 3]: 0 n (%)
Occurrence of pulmonary infection SAEs [1, 3]: 1 (25.0) n (%)
DSN in Cycle 1, mean (SD) [1, 4]: 8 (6.8) days
MAHE, event rate [1, 4]: 0.156 per week
Mean ANC Nadir in Cycle 1 [1, 4]: 0.47 (0.551) ×109/L
Occurrence of ESA administrations [1, 4]: 1 (33.3) n (%)
Occurrence of FN [1, 4]: 0 n (%)
Occurrence of G-CSF administration [1, 4]: 2 (66.7) n (%)
Occurrence of Grade 3 or 4 decreased hemoglobin laboratory values [1, 4]: 1 (33.3) n (%)
Occurrence of Grade 3 or 4 decreased platelet count values [1, 4]: 1 (33.3) n (%)
Occurrence of Grade 3 or 4 hematologic laboratory abnormalities [1, 4]: 3 (100.0) n (%)
Occurrence of IV antibiotic use [1, 4]: 1 (33.3) n (%)
Occurrence of RBC transfusions on/after Week 5 [1, 4]: 1 (33.3) n (%)
Occurrence of SN [1, 4]: 2 (66.7) n (%)
Occurrence of infection SAEs [1, 4]: 1 (33.3) n (%)
Occurrence of platelet transfusions [1, 4]: 1 (33.3) n (%)
Occurrence of pulmonary infection SAEs [1, 4]: 1 (33.3) n (%)
DSN in Cycle 1, mean (SD) [1, 5]: 14 (1.4) days
MAHE, event rate [1, 5]: 0.403 per week
Mean ANC Nadir in Cycle 1 [1, 5]: 0.20 (0.000) ×109/L
Occurrence of ESA administrations [1, 5]: 2 (100) n (%)
Occurrence of FN [1, 5]: 0 n (%)
Occurrence of G-CSF administration [1, 5]: 2 (100) n (%)
Occurrence of Grade 3 or 4 decreased hemoglobin laboratory values [1, 5]: 2 (100) n (%)
Occurrence of Grade 3 or 4 decreased platelet count values [1, 5]: 2 (100) n (%)
Occurrence of Grade 3 or 4 hematologic laboratory abnormalities [1, 5]: 2 (100.0) n (%)
Occurrence of IV antibiotic use [1, 5]: 2 (100) n (%)
Occurrence of RBC transfusions on/after Week 5 [1, 5]: 2 (100) n (%)
Occurrence of SN [1, 5]: 2 (100) n (%)
Occurrence of infection SAEs [1, 5]: 2 (100) n (%)
Occurrence of platelet transfusions [1, 5]: 0 n (%)
Occurrence of pulmonary infection SAEs [1, 5]: 1 (50.0) n (%)
DSN in Cycle 1, mean (SD) [1, 6]: 0 (0.0) days
MAHE, event rate [1, 6]: 0.037 per week
Mean ANC Nadir in Cycle 1 [1, 6]: 1.31 (0.650) ×109/L
Occurrence of ESA administrations [1, 6]: 1 (12.5) n (%)
Occurrence of FN [1, 6]: 0 n (%)
Occurrence of G-CSF administration [1, 6]: 4 (50.0) n (%)
Occurrence of Grade 3 or 4 decreased hemoglobin laboratory values [1, 6]: 3 (37.5) n (%)
Occurrence of Grade 3 or 4 decreased platelet count values [1, 6]: 0 n (%)
Occurrence of Grade 3 or 4 hematologic laboratory abnormalities [1, 6]: 7 (87.5) n (%)
Occurrence of IV antibiotic use [1, 6]: 1 (12.5) n (%)
Occurrence of RBC transfusions on/after Week 5 [1, 6]: 1 (12.5) n (%)
Occurrence of SN [1, 6]: 0 n (%)
Occurrence of infection SAEs [1, 6]: 0 n (%)
Occurrence of platelet transfusions [1, 6]: 0 n (%)
Occurrence of pulmonary infection SAEs [1, 6]: 0 n (%)
DSN in Cycle 1, mean (SD) [1, 7]: 3 (5.5) days
MAHE, event rate [1, 7]: 0.073 per week
Mean ANC Nadir in Cycle 1 [1, 7]: 0.63 (0.341) ×109/L
Occurrence of ESA administrations [1, 7]: 1 (12.5) n (%)
Occurrence of FN [1, 7]: 0 n (%)
Occurrence of G-CSF administration [1, 7]: 3 (37.5) n (%)
Occurrence of Grade 3 or 4 decreased hemoglobin laboratory values [1, 7]: 3 (37.5) n (%)
Occurrence of Grade 3 or 4 decreased platelet count values [1, 7]: 1 (12.5) n (%)
Occurrence of Grade 3 or 4 hematologic laboratory abnormalities [1, 7]: 7 (87.5) n (%)
Occurrence of IV antibiotic use [1, 7]: 1 (12.5) n (%)
Occurrence of RBC transfusions on/after Week 5 [1, 7]: 2 (25.0) n (%)
Occurrence of SN [1, 7]: 3 (37.5) n (%)
Occurrence of infection SAEs [1, 7]: 1 (12.5) n (%)
Occurrence of platelet transfusions [1, 7]: 0 n (%)
Occurrence of pulmonary infection SAEs [1, 7]: 1 (12.5) n (%)
DSN in Cycle 1, mean (SD) [1, 8]: 2 (3.6) days
MAHE, event rate [1, 8]: 0.085 per week
Mean ANC Nadir in Cycle 1 [1, 8]: 0.86 (0.594) ×109/L
Occurrence of ESA administrations [1, 8]: 0 n (%)
Occurrence of FN [1, 8]: 1 (14.3) n (%)
Occurrence of G-CSF administration [1, 8]: 2 (28.6) n (%)
Occurrence of Grade 3 or 4 decreased hemoglobin laboratory values [1, 8]: 1 (14.3) n (%)
Occurrence of Grade 3 or 4 decreased platelet count values [1, 8]: 2 (28.6) n (%)
Occurrence of Grade 3 or 4 hematologic laboratory abnormalities [1, 8]: 7 (100.0) n (%)
Occurrence of IV antibiotic use [1, 8]: 2 (28.6) n (%)
Occurrence of RBC transfusions on/after Week 5 [1, 8]: 1 (14.3) n (%)
Occurrence of SN [1, 8]: 2 (28.6) n (%)
Occurrence of infection SAEs [1, 8]: 0 n (%)
Occurrence of platelet transfusions [1, 8]: 1 (14.3) n (%)
Occurrence of pulmonary infection SAEs [1, 8]: 0 n (%)
DSN in Cycle 1, mean (SD) [1, 9]: 3 (5.1) days
MAHE, event rate [1, 9]: 0.107 per week
Occurrence of ESA administrations [1, 9]: 5 (15.6) n (%)
Occurrence of FN [1, 9]: 1 (3.1) n (%)
Occurrence of G-CSF administration [1, 9]: 14 (43.8) n (%)
Occurrence of Grade 3 or 4 decreased hemoglobin laboratory values [1, 9]: 12 (37.5) n (%)
Occurrence of Grade 3 or 4 decreased platelet count values [1, 9]: 8 (25.0) n (%)
Occurrence of Grade 3 or 4 hematologic laboratory abnormalities [1, 9]: 30 (93.8) n (%)
Occurrence of IV antibiotic use [1, 9]: 8 (25.0) n (%)
Occurrence of RBC transfusions on/after Week 5 [1, 9]: 9 (28.1) n (%)
Occurrence of SN [1, 9]: 10 (31.3) n (%)
Occurrence of infection SAEs [1, 9]: 5 (15.6) n (%)
Occurrence of platelet transfusions [1, 9]: 2 (6.3) n (%)
Occurrence of pulmonary infection SAEs [1, 9]: 4 (12.5) n (%)
HSPCs arrested in the G1 phase [2]: ~100%
